Here are results for twelve molecules from paper PMC6323635 (Journal of natural products, 2016).

Entries after “also recorded” stand apart in the source; their conditions may differ. Read-outs that look alike come from different tables or passages of the source.

One data set concerns the target HIF-1α/p300 (Homo sapiens, UniProt Q09472). The data set is described as follows: HIF-1α/p300 screening assay. The format is binding.
The test system of data set [1] is ENO1, VEGF, and LDHA mRNA expression in PC3 prostate cancer cells. To be noted: cited from earlier work.
For data set [2], the system named is HCT 116 cells. To be noted: cited from earlier work.
The next data set concerns COLO 205 cells. The data set is described as follows: CCK-8 cytotoxicity assay under hypoxic conditions. The format is cell-based. To be noted: for IC50: read-out: IC50 value (μM) ± SEM, COLO 205 (48 h, 0.5% O2), COLO 205, 48 h, 0.5% O2, CCK-8; for Cell death in COLO 205 cells: up to concentrations of 10 μM, hypoxia. For orientation: Formazan colour is commonly taken as a measure of viable cells.

Data set [3] has as its system HCT 116 cells. The data set is described as follows: CCK-8 cytotoxicity assay under hypoxic conditions. The format is cell-based, human. Conditions: 0.5% O2, CCK-8.
Another data set has as its system LNCaP cells. The data set is described as follows: CCK-8 cytotoxicity assay under hypoxic conditions. The format is cell-based, human. Conditions: read-out: IC50 value (μM) ± SEM, LNCaP (18 h, 1% O2), 1% O2, CCK-8.
In data set [4] the test system is HIF-1α transcriptional activity in COLO 205 cells. The data set is described as follows: HIF reporter assay. It counts as cell-based, human. (In general: In a reporter assay the amount or activity of a reporter protein is the signal.)
The subject of data set [5] is HIF-1α transcriptional activity in HCT 116 cells. As to the kind of experiment: HIF reporter assay. The format is cell-based.
Data set [6] concerns HIF-1α transcriptional activity in LNCaP cells. As to the kind of experiment: HIF reporter assay. The format is cell-based, human.
In data set [7] the test system is tumor growth in xenograft models. To be noted: cited from earlier work.
Data set [8] relates to VEGF secretion in HCT 116 cells. The data set is described as follows: VEGF ELISA. The format is cell-based, human. To be noted: for Hypoxia-induced VEGF secretion in HCT 116 cells: 48 h, 0.5% O2, concentrations active in HIF reporter assay. A general note: An ELISA detects its analyte on a solid surface through an enzyme-linked reagent.
The subject of data set [9] is VEGF secretion in LNCaP cells. The data set is described as follows: VEGF ELISA. It counts as cell-based, human. To be noted: 18 h, 1% O2.
Data set [10] deals with HCT 116 cells. To be noted: cited from earlier work. This is another data set of the same source.
In another data set the test system is DNA topoisomerase II. Conditions: cited from earlier work.
Setting [11] is: read-out: IC50 value (μM) ± SEM, HCT 116 (18 h, 0.5% O2), HCT 116, 18 h.
Where [12] appears, read: read-out: IC50 value (μM) ± SD, HIF-1α/p300 screening assay, cell-free assay, ± SD.

HIF-1α/p300, sequence (Q09472 331-417 limits assumed): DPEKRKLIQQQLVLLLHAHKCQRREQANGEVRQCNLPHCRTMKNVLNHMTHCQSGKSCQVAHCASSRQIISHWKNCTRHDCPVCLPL

Molecule `CN1C(=O)[C@]2(Cc3cn([C@]45C[C@@]67SS[C@@](CO)(C(=O)N6[C@H]4Nc4ccccc45)N(C)C7=O)c4ccccc34)SS[C@@]1(CO)C(=O)N2C` [chetomin, reference compound] returned an IC50 on HIF-1α/p300 of 1.9 ± 0.5 µM.
`CN1C(=O)[C@]23CC4=CC=C[C@H](O)[C@H]4N2C(=O)[C@@]1(CO)SS3` [gliotoxin]: in data set [1], the “ENO1, VEGF, and LDHA mRNA expression in PC3 prostate cancer cells” value is listed as “lowered”. Also, the “Effects on HIF target mRNA expression in HCT 116 cells” value with HCT 116 cells [2] is “no effects”.
(−)-discorhabdin W [compound 11]: the IC50 in the data set on COLO 205 cells is over 10 µM; in the data set on HCT 116 cells [3] (setting [11]), over 10 µM; with LNCaP cells, over 10 µM; on HIF-1α/p300 (setting [12]) it was over 100 µM. For the same molecule, in the data set on COLO 205 cells, the “Cell death in COLO 205 cells” value is on record as “did not cause substantial cell death”. For the same molecule, the “Concentrations causing significant inhibition of luciferase activity, COLO 205” value in data set [4] is “no effect”. At HIF-1α/p300 (in words), the “Activity in the screening assay” value is “no activity”. Further, the “Effect on HIF-1α transcriptional (reporter) activity in HCT 116 cells” value in [5] is given as “reduced HIF reporter activity”. The “Activity in HIF reporter assay in LNCaP cells” value in data set [6] was “did not show activity”. Moreover, the “Concentrations causing significant inhibition of luciferase activity, LNCaP” value in data set [6] is reported as “no effect”.
With `O=C1CC2SC3CC2(C=C1Br)C1=C(N3)C(=O)c2[nH]cc3c2C1=NCC3` (single isomer, unassigned; (+)) [compound 6, (+)-discorhabdin A], the “Tumor growth in xenograft models” value in [7] is recorded as “did not reduce tumor growth”.
Consider (−)-discorhabdin H [compound 8], for which the IC50 is over 10 µM in the data set with COLO 205 cells; over 10 µM with HCT 116 cells [3] (setting [11]); over 50 µM in the data set with HCT 116 cells [3] (read-out: IC50 value (μM) ± SEM, HCT 116 (48 h, 0.5% O2), HCT 116, 48 h); over 10 µM with LNCaP cells; 2.2 ± 0.6 µM at HIF-1α/p300 (setting [12]). For the same molecule, the “Cell death in COLO 205 cells” value with COLO 205 cells is listed as “did not cause substantial cell death”. Further, the “Hypoxia-induced VEGF secretion in HCT 116 cells” value (“Hypoxia-induced VEGF secretion” below) in data set [8] is “none of these compounds significantly reduced”. In addition, the “Concentrations causing significant inhibition of luciferase activity, COLO 205” value in data set [4] (p < 0.05, 18 h, 0.5% O2) is “no effect”. In addition, the “VEGF secretion in LNCaP cells” value in [9] (0.5 μM) is “significant decrease; also recorded: significantly decreased”. Also, the “Concentrations causing significant inhibition of luciferase activity, LNCaP” value in data set [6] (p < 0.05, 18 h, 1% O2, superscript a = >50% cell death in CCK-8 assay) was determined as 0.1 µM.
Consider `O=C1C=C2S[C@H]3C[C@]2(C=C1Br)C1=C(N3)C(=O)c2[nH]cc3c2C1=NCC3` [compound 1, (+)-discorhabdin B], for which the “Tumor growth in xenograft models” value in data set [7] is “did not reduce tumor growth”. In addition, in [4] (p < 0.05, 18 h, 0.5% O2), the “Concentrations causing significant inhibition of luciferase activity, COLO 205” value was “no effect”.
In the case of (+)-discorhabdin G*/I [compound 4], the “IC50 values, cytotoxicity in HCT 116 cells” value with HCT 116 cells [10] was “lower micromolar range”.
Consider `O=C1C(NC2Cc3cc(Br)c(O)cc3S2)=CC2=NCCc3c[nH]c1c32` (single isomer, unassigned; (-)) [compound 5, (−)-makaluvamine F], for which, in the data set on COLO 205 cells, the “Cell death in COLO 205 cells” value is “did not cause substantial cell death”. Besides, the “Concentrations causing significant inhibition of luciferase activity, COLO 205” value in data set [4] (p < 0.05, 18 h, 0.5% O2) is “no effect”. The “Inhibition of DNA topoisomerase II” value in the data set on DNA topoisomerase II is reported as “inhibit DNA topoisomerase II”.
Turning to `O=C1C=C(S[C@H]2[C@H]3C(=O)C=C4S[C@H]5C[C@]42C2=C(N5)C(=O)c4[nH]cc5c4C2=[N+]3CC5)[C@]2(C=C1Br)CCNC1=C2C2=NCCc3c[nH]c(c32)C1=O` [compound 2, (−)-discorhabdin B dimer], the “Cell death in COLO 205 cells” value in the data set on COLO 205 cells is “did not cause substantial cell death”. Besides, the “Trend in VEGF secretion in HCT 116 cells” value in [8] (0.1–0.25 μM, 18 h and 48 h) is recorded as “statistically nonsignificant trend in the decrease”. Moreover, in data set [8], the “Hypoxia-induced VEGF secretion” value was “none of these compounds significantly reduced”. For the same molecule, in [4] (p < 0.05, 18 h, 0.5% O2), the “Concentrations causing significant inhibition of luciferase activity, COLO 205” value is “no effect”. Moreover, the “Effect on HIF-1α transcriptional (reporter) activity in HCT 116 cells” value in data set [5] (in words, 18 h, 0.5% O2) is recorded as “most potent at decreasing reporter activity”.
As to `O=C1C2=C(C3=NCCc4c[nH]c1c43)[C@]1(C=C(Br)[C@H](O)C(Br)=C1)CCN2` [compound 3, 3-dihydrodiscorhabdin C], the “IC50 values, cytotoxicity in HCT 116 cells” value with HCT 116 cells [10] was “lower micromolar range”. Further, the “Concentrations causing significant inhibition of luciferase activity, COLO 205” value in [4] (p < 0.05, 18 h, 0.5% O2) is “no effect”.
As to `O=C1C2=C3C4=[N+](CCc5c[nH]c1c54)[C@@H]1C(=O)C=C4S[C@@H](C[C@@]43[C@H]1O)N2` [compound 9, (−)-discorhabdin L], the “Hypoxia-induced VEGF secretion” value in [8] is recorded as “none of these compounds significantly reduced”. For the same molecule, in data set [4] (p < 0.05, 18 h, 0.5% O2), the “Concentrations causing significant inhibition of luciferase activity, COLO 205” value was “no effect”. Further, the “VEGF concentrations in LNCaP cells” value in data set [9] (0.25–1 μM) is recorded as “borderline significant decrease”.
On to `O=C1C2=C3C4=[N+](CCc5c[nH]c1c54)[C@H]1C[C@@]34C[C@@H](N2)SC4=CC1=O` [compound 7, (−)-discorhabdin D], for which the “Antitumor activity in vivo” value in data set [7] is “the only reported discorhabdin with such activity”.
